# Experimental data reported in ChEMBL document CHEMBL4627246, “Pyroglutamide-Based P2X7 Receptor Antagonists Targeting Inflammatory Bowel Disease” (J Med Chem, 2020).
# Tested on: A549
# Experiment: Cytotoxicity against human A549/ATCC cells assessed as effect on cell growth at 10 uM incubated for 48 hrs by sulforhodamine B assay
# Format: cell-based
# Details: a549, 48 h
row,SMILES,Activity
1,COc1ccc(CN2C(=O)[C@@H]3C/C(=C\N(C)C)C(=O)N3C2N(C)C)c(OC)c1 (stereo not given in full),Non-Toxic
2,O=C(NCCc1ccccc1)[C@@H]1CCC(=O)N1Cc1ccc(Br)cc1,Non-Toxic

# Tested on: SR
# Experiment: Cytotoxicity against human SR cells assessed as effect on cell growth at 10 uM incubated for 48 hrs by sulforhodamine B assay
# Format: cell-based
# Details: not given
row,SMILES,Activity
1,COc1ccc(CN2C(=O)[C@@H]3C/C(=C\N(C)C)C(=O)N3C2N(C)C)c(OC)c1 (stereo not given in full),Non-Toxic
2,O=C(NCCc1ccccc1)[C@@H]1CCC(=O)N1Cc1ccc(Br)cc1,Non-Toxic

# Tested on: RPMI-8226
# Experiment: Cytotoxicity against human RPMI8226 cells assessed as effect on cell growth at 10 uM incubated for 48 hrs by sulforhodamine B assay
# Format: cell-based
# Details: rpmi-8226, 48 h
row,SMILES,Activity
1,COc1ccc(CN2C(=O)[C@@H]3C/C(=C\N(C)C)C(=O)N3C2N(C)C)c(OC)c1 (stereo not given in full),Non-Toxic
2,O=C(NCCc1ccccc1)[C@@H]1CCC(=O)N1Cc1ccc(Br)cc1,Non-Toxic

# Tested on: MOLT-4
# Experiment: Cytotoxicity against human MOLT4 cells assessed as effect on cell growth at 10 uM incubated for 48 hrs by sulforhodamine B assay
# Format: cell-based
# Details: molt-4, 48 h
row,SMILES,Activity
1,COc1ccc(CN2C(=O)[C@@H]3C/C(=C\N(C)C)C(=O)N3C2N(C)C)c(OC)c1 (stereo not given in full),Non-Toxic
2,O=C(NCCc1ccccc1)[C@@H]1CCC(=O)N1Cc1ccc(Br)cc1,Non-Toxic

# Tested on: EKVX
# Experiment: Cytotoxicity against human EKVX cells assessed as effect on cell growth at 10 uM incubated for 48 hrs by sulforhodamine B assay
# Format: cell-based
# Details: not given
row,SMILES,Activity
1,COc1ccc(CN2C(=O)[C@@H]3C/C(=C\N(C)C)C(=O)N3C2N(C)C)c(OC)c1 (stereo not given in full),Non-Toxic
2,O=C(NCCc1ccccc1)[C@@H]1CCC(=O)N1Cc1ccc(Br)cc1,Non-Toxic

# Tested on: HL-60(TB)
# Experiment: Cytotoxicity against human HL-60(TB) cells assessed as effect on cell growth at 10 uM incubated for 48 hrs by sulforhodamine B assay
# Format: cell-based
# Details: not given
row,SMILES,Activity
1,COc1ccc(CN2C(=O)[C@@H]3C/C(=C\N(C)C)C(=O)N3C2N(C)C)c(OC)c1 (stereo not given in full),Non-Toxic
2,O=C(NCCc1ccccc1)[C@@H]1CCC(=O)N1Cc1ccc(Br)cc1,Non-Toxic

# Tested on: NCI-H460
# Experiment: Cytotoxicity against human NCI-H460 cells assessed as effect on cell growth at 10 uM incubated for 48 hrs by sulforhodamine B assay
# Format: cell-based
# Details: nci-h460, 48 h
row,SMILES,Activity
1,COc1ccc(CN2C(=O)[C@@H]3C/C(=C\N(C)C)C(=O)N3C2N(C)C)c(OC)c1 (stereo not given in full),Non-Toxic
2,O=C(NCCc1ccccc1)[C@@H]1CCC(=O)N1Cc1ccc(Br)cc1,Non-Toxic

# Tested on: HCT-15
# Experiment: Cytotoxicity against human HCT15 cells assessed as effect on cell growth at 10 uM incubated for 48 hrs by sulforhodamine B assay
# Format: cell-based
# Details: hct-15, 48 h
row,SMILES,Activity
1,COc1ccc(CN2C(=O)[C@@H]3C/C(=C\N(C)C)C(=O)N3C2N(C)C)c(OC)c1 (stereo not given in full),Non-Toxic
2,O=C(NCCc1ccccc1)[C@@H]1CCC(=O)N1Cc1ccc(Br)cc1,Non-Toxic

# Tested on: KM12
# Experiment: Cytotoxicity against human KM12 cells assessed as effect on cell growth at 10 uM incubated for 48 hrs by sulforhodamine B assay
# Format: cell-based
# Details: km12, 48 h
row,SMILES,Activity
1,COc1ccc(CN2C(=O)[C@@H]3C/C(=C\N(C)C)C(=O)N3C2N(C)C)c(OC)c1 (stereo not given in full),Non-Toxic
2,O=C(NCCc1ccccc1)[C@@H]1CCC(=O)N1Cc1ccc(Br)cc1,Non-Toxic

# Tested on: SW-620
# Experiment: Cytotoxicity against human SW620 cells assessed as effect on cell growth at 10 uM incubated for 48 hrs by sulforhodamine B assay
# Format: cell-based
# Details: sw-620, 48 h
row,SMILES,Activity
1,COc1ccc(CN2C(=O)[C@@H]3C/C(=C\N(C)C)C(=O)N3C2N(C)C)c(OC)c1 (stereo not given in full),Non-Toxic
2,O=C(NCCc1ccccc1)[C@@H]1CCC(=O)N1Cc1ccc(Br)cc1,Non-Toxic

# Tested on: SF-295
# Experiment: Cytotoxicity against human SF295 cells assessed as effect on cell growth at 10 uM incubated for 48 hrs by sulforhodamine B assay
# Format: cell-based
# Details: sf-295, 48 h
row,SMILES,Activity
1,COc1ccc(CN2C(=O)[C@@H]3C/C(=C\N(C)C)C(=O)N3C2N(C)C)c(OC)c1 (stereo not given in full),Non-Toxic
2,O=C(NCCc1ccccc1)[C@@H]1CCC(=O)N1Cc1ccc(Br)cc1,Non-Toxic

# Tested on: SF-539
# Experiment: Cytotoxicity against human SF539 cells assessed as effect on cell growth at 10 uM incubated for 48 hrs by sulforhodamine B assay
# Format: cell-based
# Details: sf-539, 48 h
row,SMILES,Activity
1,COc1ccc(CN2C(=O)[C@@H]3C/C(=C\N(C)C)C(=O)N3C2N(C)C)c(OC)c1 (stereo not given in full),Non-Toxic
2,O=C(NCCc1ccccc1)[C@@H]1CCC(=O)N1Cc1ccc(Br)cc1,Non-Toxic

# Tested on: M14
# Experiment: Cytotoxicity against human M14 cells assessed as effect on cell growth at 10 uM incubated for 48 hrs by sulforhodamine B assay
# Format: cell-based
# Details: m14, 48 h
row,SMILES,Activity
1,COc1ccc(CN2C(=O)[C@@H]3C/C(=C\N(C)C)C(=O)N3C2N(C)C)c(OC)c1 (stereo not given in full),Non-Toxic
2,O=C(NCCc1ccccc1)[C@@H]1CCC(=O)N1Cc1ccc(Br)cc1,Non-Toxic

# Tested on: OVCAR-5
# Experiment: Cytotoxicity against human OVCAR5 cells assessed as effect on cell growth at 10 uM incubated for 48 hrs by sulforhodamine B assay
# Format: cell-based
# Details: ovcar-5, 48 h
row,SMILES,Activity
1,COc1ccc(CN2C(=O)[C@@H]3C/C(=C\N(C)C)C(=O)N3C2N(C)C)c(OC)c1 (stereo not given in full),Non-Toxic
2,O=C(NCCc1ccccc1)[C@@H]1CCC(=O)N1Cc1ccc(Br)cc1,Non-Toxic

# Tested on: SK-OV-3
# Experiment: Cytotoxicity against human SKOV3 cells assessed as effect on cell growth at 10 uM incubated for 48 hrs by sulforhodamine B assay
# Format: cell-based
# Details: sk-ov-3, 48 h
row,SMILES,Activity
1,COc1ccc(CN2C(=O)[C@@H]3C/C(=C\N(C)C)C(=O)N3C2N(C)C)c(OC)c1 (stereo not given in full),Non-Toxic
2,O=C(NCCc1ccccc1)[C@@H]1CCC(=O)N1Cc1ccc(Br)cc1,Non-Toxic

# Tested on: 786-0
# Experiment: Cytotoxicity against human 786-0 cells assessed as effect on cell growth at 10 uM incubated for 48 hrs by sulforhodamine B assay
# Format: cell-based
# Details: 786-0, 48 h
row,SMILES,Activity
1,COc1ccc(CN2C(=O)[C@@H]3C/C(=C\N(C)C)C(=O)N3C2N(C)C)c(OC)c1 (stereo not given in full),Non-Toxic
2,O=C(NCCc1ccccc1)[C@@H]1CCC(=O)N1Cc1ccc(Br)cc1,Non-Toxic

# Tested on: A498
# Experiment: Cytotoxicity against human A498 cells assessed as effect on cell growth at 10 uM incubated for 48 hrs by sulforhodamine B assay
# Format: cell-based
# Details: a498, 48 h
row,SMILES,Activity
1,COc1ccc(CN2C(=O)[C@@H]3C/C(=C\N(C)C)C(=O)N3C2N(C)C)c(OC)c1 (stereo not given in full),Non-Toxic
2,O=C(NCCc1ccccc1)[C@@H]1CCC(=O)N1Cc1ccc(Br)cc1,Non-Toxic

# Tested on: ACHN
# Experiment: Cytotoxicity against human ACHN cells assessed as effect on cell growth at 10 uM incubated for 48 hrs by sulforhodamine B assay
# Format: cell-based
# Details: not given
row,SMILES,Activity
1,COc1ccc(CN2C(=O)[C@@H]3C/C(=C\N(C)C)C(=O)N3C2N(C)C)c(OC)c1 (stereo not given in full),Non-Toxic
2,O=C(NCCc1ccccc1)[C@@H]1CCC(=O)N1Cc1ccc(Br)cc1,Non-Toxic

# Tested on: UO-31
# Experiment: Cytotoxicity against human UO31 cells assessed as effect on cell growth at 10 uM incubated for 48 hrs by sulforhodamine B assay
# Format: cell-based
# Details: uo-31, 48 h
row,SMILES,Activity
1,COc1ccc(CN2C(=O)[C@@H]3C/C(=C\N(C)C)C(=O)N3C2N(C)C)c(OC)c1 (stereo not given in full),Non-Toxic
2,O=C(NCCc1ccccc1)[C@@H]1CCC(=O)N1Cc1ccc(Br)cc1,Non-Toxic

# Tested on: DU-145
# Experiment: Cytotoxicity against human DU145 cells assessed as effect on cell growth at 10 uM incubated for 48 hrs by sulforhodamine B assay
# Format: cell-based
# Details: du-145, 48 h
row,SMILES,Activity
1,COc1ccc(CN2C(=O)[C@@H]3C/C(=C\N(C)C)C(=O)N3C2N(C)C)c(OC)c1 (stereo not given in full),Non-Toxic
2,O=C(NCCc1ccccc1)[C@@H]1CCC(=O)N1Cc1ccc(Br)cc1,Non-Toxic
